Assay results taken from patent US7897602B2, “Indolinone compounds as kinase inhibitors” (Development Center for Biotechnology, priority 2009, dated 2011).

How the values were obtained:
Type in all cases: biochemical
Aurora B kinase = target: T1, Aurora B kinase (Homo sapiens, UniProt Q96GD4); test: Aurora B kinase assay ([γ-33P]ATP, CHOCKtide substrate)
T1 construct: purchased Cell signaling
Method in brief: (§1)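 Radiometric filter-binding format: 33P incorporation into CHOCKtide counted after acid stop and filtration. Reactions ran 30 min at 33 °C, Aurora A with 10 μM ATP, Aurora B with 40 μM ATP. IC50 taken as concentration giving half-maximal kinase inhibition.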

Aurora A kinase = target: T2, Aurora A kinase (Homo sapiens, UniProt O14965); test: Aurora A kinase assay ([γ-33P]ATP, CHOCKtide substrate)
T2 construct: purchased Upstate
T2 sequence (O14965 1-403): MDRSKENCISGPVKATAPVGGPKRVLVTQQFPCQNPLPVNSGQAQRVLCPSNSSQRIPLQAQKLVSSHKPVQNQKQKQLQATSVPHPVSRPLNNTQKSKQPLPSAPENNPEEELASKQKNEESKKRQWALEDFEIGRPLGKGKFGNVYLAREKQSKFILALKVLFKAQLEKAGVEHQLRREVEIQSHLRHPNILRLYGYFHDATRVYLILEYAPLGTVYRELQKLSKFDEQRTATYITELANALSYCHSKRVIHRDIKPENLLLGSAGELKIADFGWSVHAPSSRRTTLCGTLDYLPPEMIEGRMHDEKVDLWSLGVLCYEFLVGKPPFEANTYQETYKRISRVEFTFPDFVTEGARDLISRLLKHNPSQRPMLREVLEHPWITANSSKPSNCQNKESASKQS
Method in brief: as §1

PDGFR-β kinase = target: T3, PDGFR-β kinase (Homo sapiens, UniProt P09619); test: PDGFR-β kinase assay (33P incorporation into Poly(Glu-Tyr)); settings: 500 nM test compound
T3 construct: recombinant N-terminal 6×His-tagged PDGFR-β kinase domain construct expressed by baculovirus; 6xHis (N); made in house
T3 sequence (P09619 600-962 limits assumed): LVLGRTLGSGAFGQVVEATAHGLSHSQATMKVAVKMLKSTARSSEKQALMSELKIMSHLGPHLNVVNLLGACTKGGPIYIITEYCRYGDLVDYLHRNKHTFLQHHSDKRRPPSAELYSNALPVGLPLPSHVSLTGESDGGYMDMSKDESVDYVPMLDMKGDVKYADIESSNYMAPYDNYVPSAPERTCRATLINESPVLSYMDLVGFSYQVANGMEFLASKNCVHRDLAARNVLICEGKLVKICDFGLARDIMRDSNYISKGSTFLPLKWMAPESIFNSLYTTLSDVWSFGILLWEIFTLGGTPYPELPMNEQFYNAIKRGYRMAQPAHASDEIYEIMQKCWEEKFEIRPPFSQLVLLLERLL
Method in brief: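 His-tagged PDGFR-β kinase domain (55 ng) with Poly(Glu-Tyr) 4:1, 30 μM ATP plus [33P]-γ-ATP, pH 7.0 MnCl2 buffer, and 500 nM compound for 30 min at 30° C. Filter-bound radioactivity counted; inhibition computed relative to DMSO control.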

c-Met kinase = target: T4, c-Met kinase (Homo sapiens, UniProt P08581); test: c-Met kinase assay (33P incorporation into Poly(Glu-Tyr)); settings: 500 nM test compound
T4 construct: recombinant N-terminal 6×His-tagged c-Met kinase domain construct expressed from baculovirus; 6xHis (N); made in house
T4 sequence (P08581 1078-1345 limits assumed): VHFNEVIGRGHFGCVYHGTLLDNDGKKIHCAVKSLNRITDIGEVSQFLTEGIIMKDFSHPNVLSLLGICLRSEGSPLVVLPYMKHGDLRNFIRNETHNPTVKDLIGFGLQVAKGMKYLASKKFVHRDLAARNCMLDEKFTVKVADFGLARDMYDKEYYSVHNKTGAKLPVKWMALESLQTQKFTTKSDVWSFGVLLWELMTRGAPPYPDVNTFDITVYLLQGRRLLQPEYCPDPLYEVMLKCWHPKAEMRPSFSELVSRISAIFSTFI
Method in brief: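 Single-concentration test (500 nM compound) at 30° C for 30 min, pH 7.0 MOPS buffer with 100 μM ATP and [33P]-γ-ATP. Enzyme was baculovirus-expressed 6×His c-Met kinase domain (5 ng), substrate Poly(Glu-Tyr) 4:1. Inhibition percentage derived from filter-bound counts relative to DMSO control.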

T1 sequence (Q96GD4 whole entry): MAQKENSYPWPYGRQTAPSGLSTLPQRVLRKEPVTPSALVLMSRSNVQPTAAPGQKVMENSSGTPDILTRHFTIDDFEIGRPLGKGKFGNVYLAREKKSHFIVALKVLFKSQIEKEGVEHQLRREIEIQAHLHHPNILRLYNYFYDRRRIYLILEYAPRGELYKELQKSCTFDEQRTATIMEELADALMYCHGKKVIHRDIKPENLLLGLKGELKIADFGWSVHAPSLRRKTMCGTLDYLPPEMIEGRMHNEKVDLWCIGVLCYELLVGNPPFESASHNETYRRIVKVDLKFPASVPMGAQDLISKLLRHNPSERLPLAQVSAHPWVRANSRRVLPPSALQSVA

| SMILES | inhibition at 1 µM (Aurora B kinase; 1.0 μM test compound) [%] | inhibition at 1 µM (Aurora A kinase; 1.0 μM test compound) [%] | inhibition at 0.5 µM (PDGFR-β kinase) [%] | inhibition at 0.5 µM (c-Met kinase) [%] | Aurora B kinase assay Inhibition at 1.0 μM (%) (Aurora B kinase; 1.0 μM test compound, 1 µM) | IC50 (Aurora A kinase) [nM] | Aurora A kinase assay Inhibition at 1.0 μM (%) (Aurora A kinase; 1.0 μM test compound, 1 µM) | Inhibition at 500 nM (%) c-Met (c-Met kinase; 0.5 µM) [%] | IC50 (Aurora B kinase) [nM] |
| --- | --- | --- | --- | --- | --- | --- | --- | --- | --- |
| CCOC(=O)CCc1c(/C=C2\C(=O)Nc3ccc(NS(=O)(=O)CC)cc32)[nH]c2c1C(=O)CCC2 [DCB-70118, (Z)-5-ethylsulfonamido-3-((3-(3-ethoxy-3-oxopropyl)-4-oxo-4,5,6,7-tetrahydro-1H-indol-2-yl)methylene)indolin-2-one] | 3.2 | 81.2 | 16.1 | 50.9 |  |  |  |  |  |
| O=C(O)CCc1c(/C=C2\C(=O)Nc3cc(F)ccc32)[nH]c2c1C(=O)CCC2 [DCB-70123, (Z)-6-fluoro-3-((3-carboxyethyl-4-oxo-4,5,6,7-tetrahydro-1H-indol-2-yl)methylene)indolin-2-one] | 13.3 | 78.1 | 67.2 | 8.3 |  |  |  |  |  |
| CCS(=O)(=O)c1ccc2c(c1)/C(=C/c1[nH]c3c(c1CCC(=O)O)C(=O)CCC3)C(=O)N2 [DCB-70116, (Z)-5-ethylsulfonyl-3-((3-carboxyethyl-4-oxo-4,5,6,7-tetrahydro-1H-indol-2-yl)methylene)indolin-2-one] | 7 | 100 | 11.2 | 38.1 |  |  |  |  |  |
| O=C(O)CCc1c(/C=C2\C(=O)Nc3cc(-c4cc(F)cc(F)c4)ccc32)[nH]c2c1C(=O)CCC2 [DCB-70101, (Z)-6-(3,5-difluorophenyl)-3-((3-carboxyethyl-4-oxo-4,5,6,7-tetrahydro-1H-indol-2-yl)methylene)indolin-2-one] | 17.7 | 38.5 | 70.5 | 26.7 |  |  |  |  |  |
| CCOC(=O)CCc1c(/C=C2\C(=O)Nc3ccc(F)cc32)[nH]c2c1C(=O)CCC2 [DCB-70053, (Z)-5-fluoro-3-((3-(3-ethoxy-3-oxopropyl)-4-oxo-4,5,6,7-tetrahydro-1H-indol-2-yl)methylene)indolin-2-one] |  |  | 82.3 |  | 3.5 | 1980 | 38.2 | 17.4 |  |
| CCOC(=O)CCc1c(/C=C2\C(=O)Nc3cc(Br)ccc32)[nH]c2c1C(=O)CCC2 [DCB-70130, (Z)-ethyl 3-(2-((6-bromo-2-oxoindolin-3-ylidene)methyl)-4-oxo-4,5,6,7-tetrahydro-1H-indol-3-yl)propanoate] | 12.2 | 22.7 | 84.9 | 4.2 |  |  |  |  |  |
| O=C(O)CCc1c(/C=C2\C(=O)Nc3cc(-c4ccc(O)c(O)c4)ccc32)[nH]c2c1C(=O)CCC2 [DCB-70078, (Z)-6-(3,4-dihydroxyphenyl)-3-((3-carboxyethyl-4-oxo-4,5,6,7-tetrahydro-1H-indol-2-yl)methylene)indolin-2-one] | 63.4 | 91.6 | 85 | -54.1 |  | 46.1 |  |  | 438 |
| O=C(O)CCc1c(/C=C2\C(=O)Nc3ccc(NCc4ccccc4)cc32)[nH]c2c1C(=O)CCC2 [DCB-70132, (Z)-3-(2-((5-(benzylamino)-2-oxoindolin-3-ylidene)methyl)-4-oxo-4,5,6,7-tetrahydro-1H-indol-3-yl)propanoic acid] | 26.9 | 33.4 | 29.3 | 13.7 |  |  |  |  |  |
| O=C(O)CCc1c(/C=C2\C(=O)Nc3ccc(S(=O)(=O)N4CCCCC4)cc32)[nH]c2c1C(=O)CCC2 [DCB-70114, (Z)-5-(piperidin-1-ylsulfonyl)-3-((3-carboxyethyl-4-oxo-4,5,6,7-tetrahydro-1H-indol-2-yl)methylene)indolin-2-one] | 60.7 | 99.9 | 5.6 | 3.5 |  | 14 |  |  | 494 |
| CCOC(=O)CCc1c(/C=C2\C(=O)Nc3cc(-c4cc(F)cc(F)c4)ccc32)[nH]c2c1C(=O)CCC2 [DCB-70100, (Z)-6-(3,5-difluorophenyl)-3-((3-(3-ethoxy-3-oxopropyl)-4-oxo-4,5,6,7-tetrahydro-1H-indol-2-yl)methylene)indolin-2-one] | 13.2 | 9.9 | 20.3 | 13.1 |  |  |  |  |  |
| O=C(O)CCc1c(/C=C2\C(=O)Nc3ccccc32)[nH]c2c1C(=O)CCC2 [DCB-70052, (Z)-3-((3-carboxyethyl-4-oxo-4,5,6,7-tetrahydro-1H-indol-2-yl)methylene)indolin-2-one] | 13 | 74.8 | 54.8 | 14.3 |  | 209 |  |  |  |
| CCOC(=O)CCc1c(/C=C2\C(=O)Nc3ccc(NS(=O)(=O)c4ccccc4)cc32)[nH]c2c1C(=O)CCC2 [DCB-70102, (Z)-5-phenylsulfonamido-3-((3-(3-ethoxy-3-oxopropyl)-4-oxo-4,5,6,7-tetrahydro-1H-indol-2-yl)methylene)indolin-2-one] | 74.3 | 88.8 | 32.8 | 33.7 |  | 83.5 |  |  | 214 |
| CN(C)S(=O)(=O)c1ccc2c(c1)/C(=C/c1[nH]c3c(c1CCC(=O)O)C(=O)CCC3)C(=O)N2 [DCB-70121, (Z)-5-(N,N-dimethylsulfamoyl)-3-((3-carboxyethyl-4-oxo-4,5,6,7-tetrahydro-1H-indol-2-yl)methylene)indolin-2-one] | 46.5 | 97.9 | 16.9 | -6.7 |  |  |  |  | 1720 |
| CCOC(=O)CCc1c(C=C2C(=S)Nc3cc(Br)ccc32)[nH]c2c1C(=O)CCC2 [DCB-70085, 6-bromo-3-((3-(3-ethoxy-3-oxopropyl)-4-oxo-4,5,6,7-tetrahydro-1H-indol-2-yl)methylene)indolin-2-thione] | 10.7 | 11.2 | 16.5 | 25.1 |  |  |  |  |  |
| O=C(O)CCc1c(/C=C2\C(=O)Nc3ccc(Br)cc32)[nH]c2c1C(=O)CCC2 [DCB-70057, (Z)-5-bromo-3-((3-carboxyethyl-4-oxo-4,5,6,7-tetrahydro-1H-indol-2-yl)methylene)indolin-2-one] | 6.8 | 89.5 | 89.3 | 19.3 |  | 211 |  |  |  |
| CCOC(=O)CCc1c(/C=C2\C(=O)Nc3ccc(NC(=O)Nc4ccccc4)cc32)[nH]c2c1C(=O)CCC2 [DCB-70134, (Z)-ethyl 3-(4-oxo-2-((2-oxo-5-(3-phenylureido)indolin-3-ylidene)methyl)-4,5,6,7-tetrahydro-1H-indol-3-yl)propanoate] | 5.7 | 16.4 | 24 | -0.3 |  |  |  |  |  |
| O=C(O)CCc1c(/C=C2\C(=O)Nc3cc(Br)ccc32)[nH]c2c1C(=O)CCC2 [DCB-70133, (Z)-3-(2-((6-bromo-2-oxoindolin-3-ylidene)methyl)-4-oxo-4,5,6,7-tetrahydro-1H-indol-3-yl)propanoic acid] | 6 | 2.6 | 8.3 | 3.3 |  |  |  |  |  |
| Cc1ccc(NC(=O)Nc2ccc3c(c2)/C(=C/c2[nH]c4c(c2CCC(=O)O)C(=O)CCC4)C(=O)N3)cc1 [DCB-70093, (Z)-5-(3-p-tolylureido)-3-((3-carboxyethyl-4-oxo-4,5,6,7-tetrahydro-1H-indol-2-yl)methylene)indolin-2-one] | 14.7 | 70.5 | 40 | 28.2 |  |  |  |  |  |
| O=C(O)CCc1c(/C=C2\C(=O)Nc3ccc(-c4cc5ccccc5s4)cc32)[nH]c2c1C(=O)CCC2 [DCB-70070, (Z)-5-(benzo[b]thiophen-2-yl)-3-((3-carboxyethyl-4-oxo-4,5,6,7-tetrahydro-1H-indol-2-yl)methylene)indolin-2-one] | -2.7 | 31.4 | 18.7 | 19.7 |  |  |  |  |  |
| O=C(O)CCc1c(/C=C2\C(=O)Nc3ccc(S(=O)(=O)Cc4ccccc4)cc32)[nH]c2c1C(=O)CCC2 [DCB-70071, (Z)-5-benzylsulfonyl-3-((3-carboxyethyl-4-oxo-4,5,6,7-tetrahydro-1H-indol-2-yl)methylene)indolin-2-one] | 11.2 | 82.1 | 43.1 | 65.3 |  | 270 |  |  |  |
